Results reported in patent US9186360B2, “Treatment of respiratory disorders using TRPA1 antagonists” (GLENMARK PHARMACEUTICALS S.A., priority 2011, dated 2015).

What was measured:
human TRPV1 = human TRPV1 (Homo sapiens (Human), UniProt Q8NER1); test: Radiometric calcium selectivity assay, CHO cells expressing human TRPV1 (capsaicin); type: cell-based; settings: read-out: IC50 values hTRPV1
Procedure: (§1) For selectivity screening, CHO cells stably expressing human TRPV1, human TRPV3, human TRPV4, or human TRPM8 were generated in-house and maintained in DMEM F-12 supplemented with 10% FBS and G418. All the cell types were cultured at 37° C. in humidified air containing 5% CO2. Radiometric calcium assay was performed as described above with some minor modifications. Assay was carried out in total volume of 200 μl at 30° C. (for TRPV1), 32° C. (for TRPV3) and 25° C. (for TRPV4 and TRPM8). Agonists used for selectivity screening of the different TRPs are: Capsaicin for TRPV1,2-aminoethoxydiphenyl borate for TRPV3, 4α-phorbol 12,13-didecanoate for TRPV4 and Icilin for TRPM8. After 2-5 minutes of agonist treatment, drug was washed and lysed in lysis buffer as mentioned above. Radioactivity in the lysate was measured in Packard Top count after addition of liquid scintillant.

human TRPV4 = human TRPV4 (Homo sapiens (Human), UniProt Q9HBA0); test: Radiometric calcium selectivity assay, CHO cells expressing human TRPV4 (4α-phorbol 12,13-didecanoate); type: cell-based; settings: read-out: IC50 values hTRPV4
Chain of human TRPV4 (Q9HBA0 whole entry): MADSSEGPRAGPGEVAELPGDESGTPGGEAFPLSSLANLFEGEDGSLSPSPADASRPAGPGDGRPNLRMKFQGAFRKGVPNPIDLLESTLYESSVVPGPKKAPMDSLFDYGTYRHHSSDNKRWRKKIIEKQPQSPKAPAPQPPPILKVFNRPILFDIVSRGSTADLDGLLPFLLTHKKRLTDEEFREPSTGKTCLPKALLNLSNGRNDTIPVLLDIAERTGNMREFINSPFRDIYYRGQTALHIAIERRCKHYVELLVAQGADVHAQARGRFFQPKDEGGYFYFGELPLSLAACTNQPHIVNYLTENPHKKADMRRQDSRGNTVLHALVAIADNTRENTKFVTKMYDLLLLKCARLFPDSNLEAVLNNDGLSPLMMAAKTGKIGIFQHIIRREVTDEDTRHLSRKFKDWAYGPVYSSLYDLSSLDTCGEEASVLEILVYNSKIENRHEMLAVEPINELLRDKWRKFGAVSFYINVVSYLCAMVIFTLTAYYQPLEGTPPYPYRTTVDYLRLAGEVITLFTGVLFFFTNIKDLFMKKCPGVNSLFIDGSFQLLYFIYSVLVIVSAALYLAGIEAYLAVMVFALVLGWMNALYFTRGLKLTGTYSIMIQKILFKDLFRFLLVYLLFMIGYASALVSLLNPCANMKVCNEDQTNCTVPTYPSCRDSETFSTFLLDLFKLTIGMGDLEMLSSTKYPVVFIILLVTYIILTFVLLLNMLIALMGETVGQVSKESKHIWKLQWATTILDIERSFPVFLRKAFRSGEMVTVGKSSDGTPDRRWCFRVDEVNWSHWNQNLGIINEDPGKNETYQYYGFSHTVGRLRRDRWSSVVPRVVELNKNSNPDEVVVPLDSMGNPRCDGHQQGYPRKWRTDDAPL
Procedure: as §1

human TRPV3 = human TRPV3 (Homo sapiens (Human), UniProt Q8NET8); test: Radiometric calcium selectivity assay, CHO cells expressing human TRPV3 (2-aminoethoxydiphenyl borate); type: cell-based; settings: read-out: IC50 values hTRPV3
Chain of human TRPV3 (Q8NET8 whole entry): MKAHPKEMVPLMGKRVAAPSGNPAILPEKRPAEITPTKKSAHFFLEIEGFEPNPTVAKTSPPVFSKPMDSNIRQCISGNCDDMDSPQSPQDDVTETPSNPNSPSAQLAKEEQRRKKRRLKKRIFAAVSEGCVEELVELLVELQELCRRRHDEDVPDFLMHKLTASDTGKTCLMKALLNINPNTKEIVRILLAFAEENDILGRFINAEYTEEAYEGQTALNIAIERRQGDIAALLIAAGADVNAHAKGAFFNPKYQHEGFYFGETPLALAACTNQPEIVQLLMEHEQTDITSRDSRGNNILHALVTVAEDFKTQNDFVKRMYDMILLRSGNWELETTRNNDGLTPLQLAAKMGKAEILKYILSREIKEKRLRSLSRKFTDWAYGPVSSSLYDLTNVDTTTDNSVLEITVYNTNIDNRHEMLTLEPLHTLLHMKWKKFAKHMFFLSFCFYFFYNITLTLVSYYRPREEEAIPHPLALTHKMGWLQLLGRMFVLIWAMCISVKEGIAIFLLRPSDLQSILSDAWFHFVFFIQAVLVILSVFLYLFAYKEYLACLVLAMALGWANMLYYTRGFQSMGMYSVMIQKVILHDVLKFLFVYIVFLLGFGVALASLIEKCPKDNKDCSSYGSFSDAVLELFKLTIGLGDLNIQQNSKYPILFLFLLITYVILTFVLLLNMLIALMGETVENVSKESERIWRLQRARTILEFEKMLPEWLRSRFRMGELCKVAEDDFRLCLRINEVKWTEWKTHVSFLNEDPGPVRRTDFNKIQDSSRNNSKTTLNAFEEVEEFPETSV
Procedure: as §1

human TRPM8 = human TRPM8 (Homo sapiens (Human), UniProt Q7Z2W7); test: Radiometric calcium selectivity assay, CHO cells expressing human TRPM8 (icilin); type: cell-based; settings: read-out: IC50 values hTRPM8
Chain of human TRPM8 (Q7Z2W7 whole entry): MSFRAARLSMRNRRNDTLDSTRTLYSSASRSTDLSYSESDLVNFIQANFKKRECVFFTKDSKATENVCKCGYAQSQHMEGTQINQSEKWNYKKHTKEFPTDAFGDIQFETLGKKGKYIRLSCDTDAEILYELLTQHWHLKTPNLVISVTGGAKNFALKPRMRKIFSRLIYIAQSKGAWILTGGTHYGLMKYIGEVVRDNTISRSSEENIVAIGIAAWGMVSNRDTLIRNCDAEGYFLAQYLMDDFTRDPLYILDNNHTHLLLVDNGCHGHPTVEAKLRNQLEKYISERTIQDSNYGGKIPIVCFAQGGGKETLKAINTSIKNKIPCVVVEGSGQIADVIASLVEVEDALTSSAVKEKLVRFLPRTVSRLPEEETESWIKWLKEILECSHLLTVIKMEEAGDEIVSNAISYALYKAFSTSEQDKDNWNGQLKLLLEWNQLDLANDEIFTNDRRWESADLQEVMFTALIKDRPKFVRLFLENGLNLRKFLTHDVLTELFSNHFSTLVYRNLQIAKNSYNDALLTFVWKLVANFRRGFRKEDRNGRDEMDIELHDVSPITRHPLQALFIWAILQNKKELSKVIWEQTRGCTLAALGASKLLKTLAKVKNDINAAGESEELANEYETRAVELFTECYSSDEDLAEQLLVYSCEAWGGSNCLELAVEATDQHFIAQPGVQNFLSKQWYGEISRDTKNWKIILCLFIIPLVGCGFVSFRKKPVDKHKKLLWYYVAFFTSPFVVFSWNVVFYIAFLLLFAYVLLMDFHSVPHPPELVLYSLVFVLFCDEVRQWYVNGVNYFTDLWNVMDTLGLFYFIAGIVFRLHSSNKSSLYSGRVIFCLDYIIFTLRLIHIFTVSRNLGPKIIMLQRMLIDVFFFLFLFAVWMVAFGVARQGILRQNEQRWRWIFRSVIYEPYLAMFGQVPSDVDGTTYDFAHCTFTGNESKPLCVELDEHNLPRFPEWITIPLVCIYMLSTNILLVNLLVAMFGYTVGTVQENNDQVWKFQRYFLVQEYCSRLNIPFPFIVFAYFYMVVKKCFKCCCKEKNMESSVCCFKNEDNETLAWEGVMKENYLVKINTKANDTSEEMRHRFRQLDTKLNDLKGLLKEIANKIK
Procedure: as §1

human TRPA1 = human TRPA1 (Homo sapiens (Human), UniProt O75762); test: 45Calcium uptake assay, AITC induced, human TRPA1 expressing CHO cells; type: cell-based; settings: AITC 30 micromolar, read-out: IC50 values hTRPA1
Chain of human TRPA1 (O75762 whole entry): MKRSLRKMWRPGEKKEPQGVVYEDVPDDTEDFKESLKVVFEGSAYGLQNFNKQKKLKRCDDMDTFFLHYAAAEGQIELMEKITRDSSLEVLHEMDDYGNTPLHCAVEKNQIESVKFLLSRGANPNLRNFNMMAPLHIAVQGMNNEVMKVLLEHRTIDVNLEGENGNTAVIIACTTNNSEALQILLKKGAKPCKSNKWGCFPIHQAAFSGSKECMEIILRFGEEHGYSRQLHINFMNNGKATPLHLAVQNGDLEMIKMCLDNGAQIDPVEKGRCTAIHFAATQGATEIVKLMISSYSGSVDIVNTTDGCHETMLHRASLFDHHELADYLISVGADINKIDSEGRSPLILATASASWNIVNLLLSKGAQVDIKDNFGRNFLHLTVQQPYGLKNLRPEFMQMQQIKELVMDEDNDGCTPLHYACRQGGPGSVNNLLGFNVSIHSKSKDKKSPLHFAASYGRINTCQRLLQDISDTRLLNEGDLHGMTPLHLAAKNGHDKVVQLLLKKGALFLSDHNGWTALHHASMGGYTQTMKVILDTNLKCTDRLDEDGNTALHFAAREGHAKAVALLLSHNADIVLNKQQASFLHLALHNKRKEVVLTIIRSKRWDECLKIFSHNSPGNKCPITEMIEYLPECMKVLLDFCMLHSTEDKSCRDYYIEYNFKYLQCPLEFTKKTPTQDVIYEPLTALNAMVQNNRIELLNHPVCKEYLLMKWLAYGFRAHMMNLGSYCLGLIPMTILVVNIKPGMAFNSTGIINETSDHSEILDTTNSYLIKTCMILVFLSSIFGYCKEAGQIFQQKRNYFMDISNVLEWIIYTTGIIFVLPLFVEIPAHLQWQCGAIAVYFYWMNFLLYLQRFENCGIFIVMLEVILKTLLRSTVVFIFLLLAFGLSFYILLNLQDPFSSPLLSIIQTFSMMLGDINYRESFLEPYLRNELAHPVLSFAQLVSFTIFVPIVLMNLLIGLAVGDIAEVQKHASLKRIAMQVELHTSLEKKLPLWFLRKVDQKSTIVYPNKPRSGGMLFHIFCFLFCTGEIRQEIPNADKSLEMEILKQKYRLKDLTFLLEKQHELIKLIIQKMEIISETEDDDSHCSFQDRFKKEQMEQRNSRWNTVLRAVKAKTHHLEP
Procedure: As contemplated herein, the IC50 value is measured by the following method. The inhibition of TRPA1 receptor activation is measured as inhibition of allylisothiocyanate (AITC) induced cellular uptake of radioactive calcium. Test solution of test compound is prepared in a suitable solvent using appropriate method. Human TRPA1 expressing CHO cells are grown in suitable medium. Cells are treated with test compounds followed by addition of AITC. Cells are washed and lysed. Radioactivity in the lysate is measured in Packard Top count after addition of liquid scintillant. The concentration response curves for compounds are plotted as a % of maximal response obtained in the absence of test antagonist, and the IC50 values are calculated from such concentration response curve by nonlinear regression analysis using GraphPad PRISM software.
The illustrative TRPA1 antagonists of the present invention were screened for TRPA1 activity according to a modified procedure described in Tóth, A. et al., Life Sciences 2003, 73, 487-498. The screening of the compounds can be carried out by other methods and procedures known to persons skilled in the art.
Screening for TRPA1 Antagonist Using the 45Calcium Uptake Assay:
The inhibition of TRPA1 receptor activation was measured as inhibition of allylisothiocyanate (AITC) induced cellular uptake of radioactive calcium. Test compounds were dissolved in DMSO to prepare 10 mM stock solution and then diluted using plain medium with 0.1% BSA and 1.8 mM CaCl2 to get desired concentration. Final concentration of DMSO in the reaction was 0.5% (v/v). Human TRPA1 expressing CHO cells were grown in F-12 DMEM medium with 10% FBS, 1% penicillin-streptomycin solution, and 400 μg/ml of G-418. Cells were seeded 24 h prior to the assay in 96 well plates so as to get ˜50,000 cells per well on the day of experiment. Cells were treated with test compounds for 10 min followed by addition of AITC at a final concentration of 30 micromolar and 5 μCi/ml 45Ca+2 for 3 min at 25° C. Cells were washed and lysed using buffer containing 1% Triton X-100, 0.1% deoxycholate and 0.1% SDS. Radioactivity in the lysate was measured in Packard Top count after addition of liquid scintillant.
Concentration response curves were plotted as a % of maximal response obtained in the absence of test antagonist. IC50 value was calculated from concentration response curve by nonlinear regression analysis using GraphPad PRISM software.

[1] = test system: ovalbumin sensitized Brown Norway rats; test: Ovalbumin asthma model in Brown Norway rats (Example 5); type: in vivo, rat; settings: i.t. 1 hour before ovalbumin challenge, BAL 48 hours; dose dependent
Procedure: Male BN rats were sensitized subcutaneously (s.c.) on day 0, 14 and 21 with 0.5 ml solution containing 20 μg/ml ovalbumin (Ova) and 40 mg/ml aluminum hydroxide. Simultaneously the animals were injected intraperitoneally (i.p.) with 0.25 ml of B. pertussis vaccine/rat containing 4×10^8 heat killed bacilli/ml. The rats were challenged with 1% aerosolized ovalbumin on Day 28 following sensitization.
Test compounds were triturated and volume was made up with Normal Saline (0.9% NaCl). Animals were administered TRPA1 antagonists (Compound 52, Compound 73, Compound 84, Compound 90 and Compound 92) intra-tracheally (i.t.) 1 hour and fluticasone 24 hours and 1 hour before ovalbumin challenge. Animals were sacrificed 48 hours after ovalbumin challenge.
BAL was performed at approximately 48 hours after ovalbumin challenge and the pooled BAL was used to determined total number of cells and for cell differential study (according to Example 2).
The total number of eosinophils in each BAL sample and % inhibition of eosinophils were calculated according to Example 3
The data was statistically evaluated by ANOVA followed by Dunnett's multiple comparisons test.

Chain of human TRPV1 (Q8NER1 whole entry): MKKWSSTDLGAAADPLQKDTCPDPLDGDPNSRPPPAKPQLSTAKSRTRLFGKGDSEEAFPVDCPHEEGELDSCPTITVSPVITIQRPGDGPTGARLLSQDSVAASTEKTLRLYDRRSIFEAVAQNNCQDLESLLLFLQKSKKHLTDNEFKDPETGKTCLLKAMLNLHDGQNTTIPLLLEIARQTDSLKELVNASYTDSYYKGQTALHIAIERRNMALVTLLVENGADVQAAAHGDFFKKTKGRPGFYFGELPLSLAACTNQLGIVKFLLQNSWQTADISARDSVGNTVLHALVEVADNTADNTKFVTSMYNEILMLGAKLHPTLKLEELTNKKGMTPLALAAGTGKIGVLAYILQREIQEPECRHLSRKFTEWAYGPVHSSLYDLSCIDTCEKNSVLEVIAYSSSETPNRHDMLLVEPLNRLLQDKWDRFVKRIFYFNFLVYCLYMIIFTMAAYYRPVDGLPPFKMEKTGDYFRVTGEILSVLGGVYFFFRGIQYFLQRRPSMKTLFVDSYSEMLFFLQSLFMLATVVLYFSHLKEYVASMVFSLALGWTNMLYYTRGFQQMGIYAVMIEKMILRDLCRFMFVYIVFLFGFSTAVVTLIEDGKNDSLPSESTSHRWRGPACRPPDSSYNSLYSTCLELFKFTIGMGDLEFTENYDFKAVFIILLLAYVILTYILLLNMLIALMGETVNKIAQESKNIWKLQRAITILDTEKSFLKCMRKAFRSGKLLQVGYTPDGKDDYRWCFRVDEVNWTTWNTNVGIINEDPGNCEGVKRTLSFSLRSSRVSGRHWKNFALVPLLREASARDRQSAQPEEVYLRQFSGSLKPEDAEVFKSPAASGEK

| SMILES | IC50 (human TRPV1) [µM] | IC50 (human TRPV4) [µM] | IC50 (human TRPV3) [µM] | IC50 (human TRPM8) [µM] | IC50 (human TRPA1) [µM] | pulmonary eosinophilia [1] |
| --- | --- | --- | --- | --- | --- | --- |
| Cc1oc2c(c1CC(=O)Nc1nc(-c3ccc(F)c(C(F)(F)F)c3F)cs1)c(=O)n(C)c(=O)n2C [Compound 64] | > 10 | > 10 | > 1 | > 10 | 0.00452 |  |
| Cc1oc2c(c1CC(=O)Nc1nc(-c3ccc(C(F)(F)F)cc3F)cs1)c(=O)n(C)c(=O)n2C [Compound 65] | > 10 | > 1 | > 1 | > 10 | 0.00665 |  |
| Cc1oc2c(c1CC(=O)Nc1nc(-c3cc(F)c(OCC(C)(C)C)c(F)c3)cs1)c(=O)n(C)c(=O)n2C [Compound 66] | > 10 | > 10 | > 10 | > 10 | 0.00363 |  |
| Cc1oc2c(c1CC(=O)Nc1nc(-c3cccc(C(F)(F)F)c3F)cs1)c(=O)n(C)c(=O)n2C [Compound 67] | > 10 | > 10 | > 1 | > 10 | 0.0136 |  |
| Cc1oc2c(c1CC(=O)Nc1nc(-c3ccc(F)c(OC(F)(F)F)c3)cs1)c(=O)n(C)c(=O)n2C [Compound 68] | > 10 | > 10 | > 1 | > 10 | 0.00484 |  |
| Cc1oc2c(c1CC(=O)Nc1nc(-c3ccc(F)c(C(F)(F)F)c3)cs1)c(=O)n(C)c(=O)n2C [Compound 69] | > 10 | > 1 | > 1 | > 10 | 0.0071 |  |
| Cc1oc2c(c1CC(=O)Nc1nc(-c3ccc(OC(F)(F)F)c(F)c3)cs1)c(=O)n(C)c(=O)n2C [Compound 70] | > 10 | > 1 | > 1 | > 10 | 0.0126 |  |
| Cc1oc2c(c1CC(=O)Nc1nc(-c3ccc(Cl)c(C(F)(F)F)c3)cs1)c(=O)n(C)c(=O)n2C [Compound 71] | > 10 | > 10 | > 1 | > 10 | 0.00318 |  |
| Cc1oc2c(c1CC(=O)Nc1nc(-c3cc(F)c(C(F)(F)F)c(F)c3)cs1)c(=O)n(C)c(=O)n2C [Compound 72] | > 10 | > 1 | > 1 | > 10 | 0.00416 |  |
| Cc1oc2c(c1CC(=O)Nc1nc(-c3ccc(OCC(F)(F)F)c(Cl)c3)cs1)c(=O)n(C)c(=O)n2C [Compound 74] | > 10 | > 10 | > 10 | > 10 | 0.00529 |  |
| Cc1oc2c(c1CC(=O)Nc1nc(-c3cc(Cl)c(OCC(C)C)c(Cl)c3)cs1)c(=O)n(C)c(=O)n2C [Compound 75] | > 10 | > 10 | > 10 | > 10 | 0.00334 |  |
| Cc1oc2c(c1CC(=O)Nc1nc(-c3ccc(C(F)(F)F)c(F)c3F)cs1)c(=O)n(C)c(=O)n2C [Compound 76] | 8.01 | 8.92 | 2.5 | > 10 | 0.00402 |  |
| Cn1c(=O)c2c(CC(=O)Nc3nc(-c4ccc(F)c(C(F)(F)F)c4F)cs3)nsc2n(C)c1=O [Compound 77] | > 10 | 0.553 | 1.77 | > 10 | 0.0056 |  |
| Cn1c(=O)c2c(CC(=O)Nc3nc(-c4ccc(C(F)(F)F)cc4F)cs3)nsc2n(C)c1=O [Compound 78] | > 10 | 0.153 | > 1 | > 10 | 0.0106 |  |
| Cn1c(=O)c2c(CC(=O)Nc3nc(-c4cccc(C(F)(F)F)c4F)cs3)nsc2n(C)c1=O [Compound 79] | > 10 | 0.826 | > 1 | > 10 | 0.00529 |  |
| Cn1c(=O)c2c(CC(=O)Nc3nc(-c4ccc(OC(F)(F)F)c(Cl)c4)cs3)nsc2n(C)c1=O [Compound 80] | > 10 | 0.279 | > 10 | > 10 | 0.00628 |  |
| Cn1c(=O)c2c(CC(=O)Nc3nc(-c4ccc(C(F)(F)F)c(F)c4)cs3)nsc2n(C)c1=O [Compound 81] | > 10 | 0.162 | > 1 | > 10 | 0.00674 |  |
| Cn1c(=O)c2c(CC(=O)Nc3nc(-c4ccc(OC(F)(F)F)c(F)c4)cs3)nsc2n(C)c1=O [Compound 82] | > 10 | 0.172 | > 1 | > 10 | 0.00804 |  |
| Cn1c(=O)c2c(CC(=O)Nc3nc(-c4cc(F)cc(C(F)(F)F)c4)cs3)nsc2n(C)c1=O [Compound 83] | > 10 | 0.237 | > 1 | > 10 | 0.0044 |  |
| Cn1c(=O)c2c(CC(=O)Nc3nc(-c4ccc(C(F)(F)F)c(F)c4)cs3)ccnc2n(C)c1=O [Compound 85] | > 10 | 0.62 | > 1 | > 10 | 0.00892 |  |
| Cn1c(=O)c2c(CC(=O)Nc3nc(-c4cc(F)c(OCC(F)(F)F)c(F)c4)cs3)ccnc2n(C)c1=O [Compound 86] | > 10 | > 1 | > 10 | > 10 | 0.00691 |  |
| Cn1c(=O)c2c(CC(=O)Nc3nc(-c4ccc(F)c(C(F)(F)F)c4F)cs3)ccnc2n(C)c1=O [Compound 87] | > 10 | 2.01 | > 10 | > 10 | 0.0193 |  |
| Cn1c(=O)c2c(CC(=O)Nc3nc(-c4ccc(OC(F)(F)F)c(F)c4)cs3)ccnc2n(C)c1=O [Compound 88] | > 10 | 0.158 | > 1 | > 10 | 0.0115 |  |
| Cn1c(=O)c2c(CC(=O)Nc3nc(-c4ccc(F)c(C(F)(F)F)c4F)cs3)onc2n(C)c1=O [Compound 92] | > 10 | > 1 | > 1 | > 10 |  | significant inhibition |
